Assay results taken from US5248667A, “Method of treating psoriasis using synthetic peptide compositions” (The United States of America as represented by the …, priority 1991, dated 1993).

Test system: normal volunteers
Assay: CNS or immunologic toxicity in volunteers
Assay type: in vivo, human
Conditions: all patients / normal volunteers
Experimental: 1. 6 male research subjects with histories of substance abuse, childhood dyslexia, and depression, have received Peptide T intravenously in doses ranging from 0.033 mg/kg to 0.133 mg/kg per day for seven days.
2. a WM HIV seronegative normal volunteer received Peptide T both intranasally and sublingually at 12.5 mg BID for one week coincidentally reported improvement in multiple red, scaling pruritic areas located in scalp and lower neck areas. This individual has a history of mild psoriasis which, by personal choice, has been treated with only topical treatments including hydrocortisone, coal tar derivatives, and calamine lotion.
3. No evidence of either CNS or immunologic toxicity associated with drug administration was aobserved in any of these patients in any of these normal volunteers.

## C[C@@H](N)C(=O)N[C@@H](CO)C(=O)N[C@H](C(=O)N[C@H](C(=O)N[C@H](C(=O)N[C@@H](CC(N)=O)C(=O)N[C@@H](Cc1ccc(O)cc1)C(=O)N[C@H](C(N)=O)[C@@H](C)O)[C@@H](C)O)[C@@H](C)O)[C@@H](C)O [Peptide T, D-Ala-Ser-Thr-Thr-Thr-Asn-Tyr-Thr-amide]
  CNS or immunologic toxicity associated with drug administration: No evidence
